# Reference: ChEMBL document CHEMBL1143564, “Structures of three classes of anticancer agents bound to the human topoisomerase I-DNA covalent complex” (J Med Chem, 2005)
# Biological target: T1, DNA topoisomerase 1 (Homo sapiens, UniProt P11387)
# T1 sequence (P11387 whole entry): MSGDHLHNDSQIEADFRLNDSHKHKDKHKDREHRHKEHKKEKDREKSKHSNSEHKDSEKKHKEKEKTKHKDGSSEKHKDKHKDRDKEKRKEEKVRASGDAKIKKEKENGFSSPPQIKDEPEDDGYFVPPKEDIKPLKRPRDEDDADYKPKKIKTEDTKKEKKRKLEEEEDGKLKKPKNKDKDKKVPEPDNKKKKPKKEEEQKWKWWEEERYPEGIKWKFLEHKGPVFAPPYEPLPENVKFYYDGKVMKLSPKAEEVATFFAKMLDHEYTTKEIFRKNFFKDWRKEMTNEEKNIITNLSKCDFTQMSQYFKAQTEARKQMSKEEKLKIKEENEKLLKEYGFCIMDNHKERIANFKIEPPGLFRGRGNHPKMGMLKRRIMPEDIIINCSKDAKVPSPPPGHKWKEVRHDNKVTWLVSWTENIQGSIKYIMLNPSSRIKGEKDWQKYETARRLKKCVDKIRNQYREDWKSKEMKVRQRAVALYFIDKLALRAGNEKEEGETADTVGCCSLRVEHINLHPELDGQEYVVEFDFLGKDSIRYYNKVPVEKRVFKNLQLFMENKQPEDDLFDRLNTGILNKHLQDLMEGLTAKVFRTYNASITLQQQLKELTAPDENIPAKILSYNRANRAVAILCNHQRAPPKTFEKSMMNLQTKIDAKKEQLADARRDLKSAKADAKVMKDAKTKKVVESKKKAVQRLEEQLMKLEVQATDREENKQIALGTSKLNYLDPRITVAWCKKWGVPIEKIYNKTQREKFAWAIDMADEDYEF
# Test: Inhibition of topoisomerase I-DNA complex in trapping assay
smiles,measurement,value
O=C1NC(=O)c2c1c1c3ccc(O)cc3[nH]c1c1c2c2ccc(O)cc2n1C1OC(CO)C(O)C(O)C1O (stereo unspecified),IC50,30 nM
